Data published in ChEMBL document CHEMBL3217599, “Selective antitumour activity and ER molecular docking studies of newly synthesizedd-homo fused steroidal tetrazoles” (Medchemcomm, 2013).

How the values were obtained:
PC-3 [1] = test: Ratio of doxorubicin IC50 to compound IC50 for human PC3 cells expressing estrogen receptor after 48 hrs by MTT assay; assay type: functional
MRC5 = test: Cytotoxicity against human MRC5 cells expressing estrogen receptor after 48 hrs by MTT assay; assay type: cell-based; details: MRC5, 48 h
HT-29 = test: Cytotoxicity against human HT-29 cells expressing estrogen receptor after 48 hrs by MTT assay; assay type: functional, cell-based; details: HT-29, 48 h
K562 = test: Cytotoxicity against human K562 cells expressing estrogen receptor after 48 hrs by MTT assay; assay type: functional, cell-based; details: K562, 48 h
HeLa = test: Cytotoxicity against human HeLa cells expressing estrogen receptor after 48 hrs by MTT assay; assay type: functional, cell-based
PC-3 [2] = test: Cytotoxicity against human PC3 cells expressing estrogen receptor after 48 hrs by MTT assay; assay type: functional, cell-based; details: PC-3, 48 h
MCF7 = test: Cytotoxicity against human MCF7 cells expressing estrogen receptor after 48 hrs by MTT assay; assay type: functional, cell-based; details: MCF7, 48 h
MDA-MB-231 = test: Cytotoxicity against estrogen receptor-deficient human MDA-MB-231 cells after 48 hrs by MTT assay; assay type: functional, cell-based; details: MDA-MB-231, 48 h

| Structure (SMILES) | Ratio IC50 (PC-3 [1]) | IC50 (MRC5) [µM] | IC50 (HT-29) [µM] | IC50 (K562) [µM] | IC50 (HeLa) [µM] | IC50 (PC-3 [2]) [µM] | IC50 (MCF7) [µM] | IC50 (MDA-MB-231) [µM] |
| --- | --- | --- | --- | --- | --- | --- | --- | --- |
| CC(=O)O[C@H]1CC[C@@]2(C)C(=CC[C@H]3[C@@H]4Cc5nnnn5[C@H](C)[C@@]4(C)CC[C@@H]32)C1 | >6 | > 100 | > 100 | 11.1 | > 100 | 15.3 | 25.4 | 89.6 |
| COc1cccc2c1C(=O)c1c(O)c3c(c(O)c1C2=O)C[C@@](O)(C(=O)CO)C[C@@H]3O[C@H]1C[C@H](N)[C@H](O)[C@H](C)O1 [DOXORUBICIN] | – | – | 0.32 | 0.36 | – | – | 0.75 | – |
| CC(=O)O[C@H]1CC[C@@]2(C)C(=CC[C@H]3[C@@H]4Cc5nnnn5C[C@@]4(C)CC[C@@H]32)C1 | – | > 100 | > 100 | 45.2 | > 100 | 79 | 56.2 | > 100 |
| C[C@H]1n2nnnc2C[C@H]2[C@@H]3CCc4cc(OCc5ccccc5)ccc4[C@H]3CC[C@@]21C | – | > 100 | 18 | > 100 | > 100 | > 100 | 4.58 | > 100 |
| C[C@]12CC[C@@H]3c4ccc(OCc5ccccc5)cc4CC[C@H]3[C@@H]1Cc1nnnn1C2 | – | > 100 | > 100 | > 100 | > 100 | 65.5 | 12.6 | > 100 |
